Like-named read-outs stand apart in the source and are kept apart here.
How the values were obtained:
hERG potassium channel = target: T1, hERG potassium channel (Homo sapiens, UniProt Q12809); test: hERG whole-cell patch-clamp test in HEK-293 cells; format: cell-based
T1 construct: host or cells: HEK-293
Description: HEK-293 cell line stably expressing hERG potassium channels (purchased from Creacell, catalog number: A-0320) was used. HEK293 cell lines were cultured in DMEM medium containing 10% fetal bovine serum and 0.8 mg/mL G418 at a temperature of 37°C and a carbon dioxide concentration of 5%. For patch-clamp assays, cells were separated using TrypLE™ Express before the assay. 4 × 10^3 cells were seeded onto coverslips and cultured in 24-well plates (final volume: 500 µL). The assays were performed 18 hours later.
Whole-cell patch-clamp test: after whole-cell sealing is achieved, the cell membrane voltage is clamped to -80mV. […] Data was collected every 10 seconds to observe the effect of the drug on hERG tail current. A -50 mV stimulus of 0.5 s was used as the leakage current detection. Experimental data were collected by the EPC-10 amplifier and stored in the software. Once the hERG current recorded in whole cells stabilized, drug administration began. Each drug concentration was administered for 5 minutes (or the current stabilized) before the next concentration was measured.

PDE4B2 = target: T2, PDE4B2 (Homo sapiens, UniProt Q07343); test: Inhibitory activity against PDE4B enzyme (AMP-Glo detection); format: biochemical
T2 construct: purchased BPS bioscience
T2 sequence (Q07343 1-564 isoform Q07343-2): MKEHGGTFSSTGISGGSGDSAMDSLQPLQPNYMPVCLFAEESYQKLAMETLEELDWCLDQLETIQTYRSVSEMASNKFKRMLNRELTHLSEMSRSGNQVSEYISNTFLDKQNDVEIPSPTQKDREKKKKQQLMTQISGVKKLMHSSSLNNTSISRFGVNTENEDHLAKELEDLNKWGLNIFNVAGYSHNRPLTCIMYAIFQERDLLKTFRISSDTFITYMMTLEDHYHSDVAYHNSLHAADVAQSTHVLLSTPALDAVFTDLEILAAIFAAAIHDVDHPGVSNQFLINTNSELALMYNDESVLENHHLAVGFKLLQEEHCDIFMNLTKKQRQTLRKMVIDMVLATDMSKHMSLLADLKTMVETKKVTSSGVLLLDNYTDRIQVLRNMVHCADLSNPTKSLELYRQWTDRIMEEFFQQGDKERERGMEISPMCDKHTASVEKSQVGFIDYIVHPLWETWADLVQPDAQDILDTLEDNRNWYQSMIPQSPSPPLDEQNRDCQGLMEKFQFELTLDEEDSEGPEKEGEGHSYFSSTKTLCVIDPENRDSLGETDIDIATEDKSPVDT
Description: 2.1 Compound preparation and treatment: all compounds were prepared into 50 mM stock solutions using dimethyl sulfoxide.
2.2 Preparation of working stock solution: a) the reference rolipram was serially diluted 3 times with dimethyl sulfoxide starting from 2 mmol, to a total of 10 concentrations. b) 2 mmol of the compound of the present invention was serially diluted three times with dimethyl sulfoxide (DMSO) to a total of 10 concentrations. c) A 200X positive control (2 mM rolipram) and a 200X vector control (100% dimethyl sulfoxide) were prepared. d) The compound plate was centrifuged at 1000 rpm for 1 minute.
• a) An Echo 550 was used to transfer 20 nL of compound dilution to each well of the detection plate. • b) The test plate was sealed and centrifuged at 1000 rpm for 1 minute. • c) 2X PDE4B2 was prepared in frozen PDE detection buffer. • d) 2 µL of 2X PDE4B2 was added to each well of the detection plate (prepared in step b). • e) The test plate was sealed and incubated for 10 minutes under RT conditions. • f) 2X Cyclic-3',5'-AMP was prepared in PDE detection buffer. • g) 2 µl of 2X Cyclic-3',5'-AMP (prepared in step f) was added to each well of the detection plate (prepared in step e) to initiate the reaction. Incubation was performed at room temperature for 60 minutes. • h) 4 µL of AMP-Glo reagent I was added. • i) 8 µL of AMP detection solution was added. Incubation was performed at room temperature for 60 minutes. • k) The RLU signal was read on the Envision 2105 reader.

[1] = HEK-293 cells stably expressing hERG, whole-cell patch clamp, 0.03-30 µM, read-out: h ERG IC50

T1 sequence (Q12809 whole entry): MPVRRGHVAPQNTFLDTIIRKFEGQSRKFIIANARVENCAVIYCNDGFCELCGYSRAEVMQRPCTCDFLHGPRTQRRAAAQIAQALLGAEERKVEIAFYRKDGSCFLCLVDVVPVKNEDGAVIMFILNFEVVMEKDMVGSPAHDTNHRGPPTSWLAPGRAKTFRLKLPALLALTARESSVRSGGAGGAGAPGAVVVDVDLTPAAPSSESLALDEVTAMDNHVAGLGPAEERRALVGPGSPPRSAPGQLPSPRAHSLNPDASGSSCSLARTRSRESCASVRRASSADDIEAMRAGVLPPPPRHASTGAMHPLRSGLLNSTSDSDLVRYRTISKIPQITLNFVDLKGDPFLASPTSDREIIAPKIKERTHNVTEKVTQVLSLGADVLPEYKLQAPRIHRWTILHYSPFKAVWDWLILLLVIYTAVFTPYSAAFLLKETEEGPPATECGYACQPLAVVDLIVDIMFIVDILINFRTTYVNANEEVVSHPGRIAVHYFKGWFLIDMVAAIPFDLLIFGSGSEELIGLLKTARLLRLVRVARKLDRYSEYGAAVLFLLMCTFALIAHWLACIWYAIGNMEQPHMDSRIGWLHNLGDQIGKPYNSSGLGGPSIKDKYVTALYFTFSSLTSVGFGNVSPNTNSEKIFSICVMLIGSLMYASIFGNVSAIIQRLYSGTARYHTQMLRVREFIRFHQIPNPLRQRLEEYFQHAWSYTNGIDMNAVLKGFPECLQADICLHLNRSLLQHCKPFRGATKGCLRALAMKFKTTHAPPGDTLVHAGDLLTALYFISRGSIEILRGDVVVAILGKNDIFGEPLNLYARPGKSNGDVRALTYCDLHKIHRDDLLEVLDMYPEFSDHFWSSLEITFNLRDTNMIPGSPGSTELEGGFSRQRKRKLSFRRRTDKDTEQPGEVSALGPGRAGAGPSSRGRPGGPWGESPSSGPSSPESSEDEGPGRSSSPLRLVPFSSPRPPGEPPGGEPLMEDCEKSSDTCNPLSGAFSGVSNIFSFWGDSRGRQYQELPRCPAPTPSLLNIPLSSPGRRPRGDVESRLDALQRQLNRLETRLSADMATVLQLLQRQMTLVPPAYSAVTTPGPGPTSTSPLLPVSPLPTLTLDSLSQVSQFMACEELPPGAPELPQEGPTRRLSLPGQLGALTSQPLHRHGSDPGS

| SMILES | IC50 (hERG potassium channel; [1]) [nM] | IC50 (PDE4B2) [nM] | IC50 (hERG potassium channel) [nM] |
| --- | --- | --- | --- |
| O=C(c1ncc(Cl)cn1)N1CCN(c2nc3c(c(NC4(CO)CCC4)n2)[S+]([O-])CC3)CC1 (stereo not drawn) [Example 3, (5-chloropyrimidin-2-yl)(4-(4-((1-(hydroxymethyl)cyclobutyl)amino)-5-oxo-6,7-dihydrothieno[3,2-d]pyrimidin-2-yl)piperazin-1-yl)methanone] | > 30000 |  |  |
| O=C(O)Cc1ccc(Nc2nc(N3CC=C(c4ncc(Cl)cn4)CC3)nc3c2[S+]([O-])CC3)cc1F (stereo not drawn) [Example 14, 2-(4-((2-(4-(5-chloropyrimidin-2-yl)-3,6-dihydropyridin-1(2H)-yl)-5-oxo-6,7-dihydrothiopheno[3,2-d]pyrimidin-4-yl)amino)-2-fluorophenyl)acetic acid] | > 30000 |  |  |
| O=C(O)C1(c2ccc(Nc3nc(N4CCC(c5ncc(Cl)cn5)CC4)nc4c3S(=O)(=O)CCC4)cc2F)CC1 [Example 23, 1-(4-((2-(4-(5-chloropyrimidin-2-yl)piperidin-1-yl)-5,5-dioxo-7,8-dihydro-6H-thiapyrano[3,2-d]pyrimidin-4-yl)amino)-2-fluorophenyl)cyclopropane-1-carboxylic acid] |  | 1 to 20 |  |
| CC(C)(C)CNC(=O)Cc1ccc(Nc2nc(N3CCC(c4ncc(Cl)cn4)CC3)nc3c2S(=O)(=O)CCC3)cc1F [Example 24, 2-(4-((2-(4-(5-chloropyrimidin-2-yl)piperidin-1-yl)-5,5-dioxo-7,8-dihydro-6H -thiapyrano[3,2-d]pyrimidin-4-yl)amino)-2-fluorophenyl) -N-neopentylacetamide] |  |  | > 30000 |
| O=C(O)Cc1ccc(Nc2nc(N3CCC(c4ncc(Cl)cn4)CC3)nc3c2S(=O)(=O)CCC3)cc1Cl [Example 21, 2-(2-chloro-4-((2-(4-(5-chloropyrimidin-2-yl)piperidin-1-yl)-5,5-dioxo-7,8-dihydro-6H -thiapyrano[3,2-d]pyrimidin-4-yl)amino)phenyl)acetic acid] | > 30000 | 1 to 20 |  |
| O=C(O)C1(c2ccc(Nc3nc(N4CC=C(c5ncc(Cl)cn5)CC4)nc4c3S(=O)(=O)CCC4)cc2F)CCC1 [Example 26, 1-(4-((2-(4-(5-chloropyrimidin-2-yl)-3,6-dihydropyridin-1(2H)-yl)-5,5-dioxo-7,8-dihydro-6H -thiapyrano[3,2-d]pyrimidin-4-yl)amino)-2-fluorophenyl)cyclobutane-1-carboxylic acid] | > 30000 |  |  |
| [O-][S+]1CCc2nc(N3CCN(Cc4ncc(Cl)cn4)CC3)nc(NC3(CO)CCC3)c21 (stereo not drawn) [Example 2, 2-(4-((S-chloropyrimidin-2-yl)methyl)piperazin-1-yl)-4-((1-(hydroxymethyl)cyclobutyl)amino)-6,7-dihydrothiopheno[3,2-d]pyrimidine 5-oxide] | > 30000 | 20 to 100 |  |
| [O-][S+]1CCc2nc(N3CC4(CN(c5ncc(Cl)cn5)C4)C3)nc(NC3(CO)CCC3)c21 (stereo not drawn) [Example 8] | > 30000 | 20 to 100 |  |
| [O-][S+]1CCc2nc(N3CC=C(c4ncc(Cl)cn4)CC3)nc(NC3(CO)CCC3)c21 (stereo not drawn) [Example 1, 2-(4-(5-chloropyrimidin-2-yl)-3,6-dihydropyridin-1(2H)-yl)-4-((1-(hydroxymethyl)cyclobutyl)amino)-6,7-dihydrothiopheno[3,2-d]pyrimidine-5-oxide] | 14500 |  |  |
| O=C(O)C1(c2ccc(Nc3nc(N4CCC(c5ncc(Cl)cn5)CC4)nc4c3S(=O)(=O)CCC4)cc2F)CCC1 [Example 25, 1-(4-((2-(4-(5-chloropyrimidin-2-yl)piperidin-1-yl)-5,5-dioxo-7,8-dihydro-6H -thiapyrano[3,2-d]pyrimidin-4-yl)amino)-2-fluorophenyl)cyclobutane-1-carboxylic acid] |  | 1 to 20 |  |
| O=C(O)Cc1ccc(Nc2nc(N3CC=C(c4ncc(Cl)cn4)CC3)nc3c2S(=O)(=O)CCC3)cc1F [Example 18, 2-(4-((2-(4-(5-chloropyrimidin-2-yl)-3,6-dihydropyridin-1(2H)-yl)-5,5-dioxo-7,8-dihydro-6H -thiapyrano[3,2-d]pyrimidin-4-yl)amino)-2-fluorophenyl)acetic acid] |  | < 1 |  |
| O=S1(=O)CCc2nc(N3CCC(c4ncc(Cl)cn4)CC3)nc(NC3(CO)CCC3)c21 [Example 4] | > 30000 | 20 to 100 |  |
| O=C(O)Cc1ccc(Nc2nc(N3CCN(c4ncc(Cl)cn4)CC3)nc3c2S(=O)(=O)CCC3)cc1F [Example 27, 2-(4-((2-(4-(5-chloropyrimidin-2-yl)piperazin-1-yl)-5,5-dioxo-7,8-dihydro-6H -thiapyrano[3,2-d]pyrimidin-4-yl)amino)-2-fluorophenyl)acetic acid] |  | 1 to 20 |  |
| Cc1ccc(O)c(C(=O)NC2CCN(c3nc4c(c(NC5(CO)CCC5)n3)[S+]([O-])CC4)CC2)c1 (stereo not drawn) [Example 7, 2-hydroxyl-N-(1-(4-((1-(hydroxymethyl)cyclobutyl)amino)-5-oxo-6,7-dihydrothiapheno[3,2-d]pyrimidin-2-yl)piperidin-4-yl)-5-methylbenzamide] | > 30000 | 1 to 20 |  |
| O=C(O)Cc1c(F)cc(Nc2nc(N3CCC(c4ncc(Cl)cn4)CC3)nc3c2S(=O)(=O)CCC3)cc1F [Example 22, 2-(4-((2-(4-(5-chloropyrimidin-2-yl)piperidin-1-yl)-5,5-dioxo-7,8-dihydro-6H -thiapyrano[3,2-d]pyrimidin-4-yl)amino)-2,6-difluorophenyl)acetic acid] | > 30000 | 1 to 20 |  |

Reference: patent EP4803525A1 (Hefei Institute of Pharmaceutical Industry Co., Ltd., priority 2023, dated 2025)
